From the kinase profiling compilation of Christmann-Franck et al. (2016)

Assays:
Assay in all cases: KINOMEscan competition binding
Conditions in all cases: compound 10.0 µM
CDK7 (human) = CDK7 (human) (UniProt P50613)
DMPK (human) = DMPK (human) (UniProt Q09013)
ACVR1 (human) = ACVR1 (human) (UniProt Q04771)
AKT2 (human) = AKT2 (human) (UniProt P31751)
FGFR1 (human) = FGFR1 (human) (UniProt P11362)
PRKD1 (human) = PRKD1 (human) (UniProt Q15139)
EPHA4 (human) = EPHA4 (human) (UniProt P54764)
GRK1 (human) = GRK1 (human) (UniProt Q15835)
PAK4 (human) = PAK4 (human) (UniProt O96013)
NEK4 (human) = NEK4 (human) (UniProt P51957)
[1] = test system: EGFR (human), P00533 [L858R]
MAP3K13 (human) = MAP3K13 (human) (UniProt O43283)
BMPR2 (human) = BMPR2 (human) (UniProt Q13873)
BMPR2 (human), sequence (Q13873 whole entry, looked up): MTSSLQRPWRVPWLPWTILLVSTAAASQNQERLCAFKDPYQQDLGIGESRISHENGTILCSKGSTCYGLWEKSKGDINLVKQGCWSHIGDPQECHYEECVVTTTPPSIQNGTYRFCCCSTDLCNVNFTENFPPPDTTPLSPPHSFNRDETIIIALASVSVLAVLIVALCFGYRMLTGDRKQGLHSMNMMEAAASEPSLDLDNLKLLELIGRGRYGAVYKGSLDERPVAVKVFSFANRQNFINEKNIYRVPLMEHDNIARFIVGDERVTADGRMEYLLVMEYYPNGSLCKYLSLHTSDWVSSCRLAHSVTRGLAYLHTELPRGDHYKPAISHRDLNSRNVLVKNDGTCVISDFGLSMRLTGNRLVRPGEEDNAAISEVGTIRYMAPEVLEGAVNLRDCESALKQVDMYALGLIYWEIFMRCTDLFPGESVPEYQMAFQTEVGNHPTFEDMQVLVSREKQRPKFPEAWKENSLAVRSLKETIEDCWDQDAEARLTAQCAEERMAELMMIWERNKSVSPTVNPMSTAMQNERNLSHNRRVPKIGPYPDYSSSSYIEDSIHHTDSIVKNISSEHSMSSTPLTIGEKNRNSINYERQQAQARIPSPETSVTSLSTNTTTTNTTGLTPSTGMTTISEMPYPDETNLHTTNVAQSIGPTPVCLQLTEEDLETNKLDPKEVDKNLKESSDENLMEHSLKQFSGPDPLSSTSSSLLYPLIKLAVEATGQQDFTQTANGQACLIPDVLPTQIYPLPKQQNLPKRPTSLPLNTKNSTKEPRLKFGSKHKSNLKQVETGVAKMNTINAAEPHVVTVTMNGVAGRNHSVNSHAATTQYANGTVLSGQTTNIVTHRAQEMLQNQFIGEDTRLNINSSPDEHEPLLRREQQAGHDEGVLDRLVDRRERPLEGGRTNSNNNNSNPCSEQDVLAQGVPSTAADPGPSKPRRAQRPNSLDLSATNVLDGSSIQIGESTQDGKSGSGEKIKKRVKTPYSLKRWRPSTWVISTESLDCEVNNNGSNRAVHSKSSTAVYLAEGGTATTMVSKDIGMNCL

PRKX (human) = PRKX (human) (UniProt P51817)
AXL (human) = AXL (human) (UniProt P30530)
ACVR2A (human) = ACVR2A (human) (UniProt P27037)
ACVR2A (human), sequence (P27037 whole entry, looked up): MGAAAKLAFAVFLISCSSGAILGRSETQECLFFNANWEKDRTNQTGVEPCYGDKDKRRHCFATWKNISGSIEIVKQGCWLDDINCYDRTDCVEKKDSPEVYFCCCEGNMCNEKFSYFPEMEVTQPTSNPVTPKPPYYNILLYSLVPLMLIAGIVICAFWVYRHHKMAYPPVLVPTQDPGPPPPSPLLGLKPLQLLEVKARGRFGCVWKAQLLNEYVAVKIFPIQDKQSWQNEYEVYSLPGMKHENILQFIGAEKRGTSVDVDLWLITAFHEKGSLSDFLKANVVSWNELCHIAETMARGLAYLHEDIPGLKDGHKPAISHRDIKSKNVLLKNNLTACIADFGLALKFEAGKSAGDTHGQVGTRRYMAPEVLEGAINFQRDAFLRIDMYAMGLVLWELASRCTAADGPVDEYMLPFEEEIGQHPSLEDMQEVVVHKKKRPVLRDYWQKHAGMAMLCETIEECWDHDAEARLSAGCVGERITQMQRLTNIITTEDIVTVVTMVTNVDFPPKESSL

PIP4K2B (human) = PIP4K2B (human) (UniProt P78356)
RPS6KA1 KD1 (human) = RPS6KA1 KD1 (human) (UniProt Q15418)
SRMS (human) = SRMS (human) (UniProt Q9H3Y6)
MYLK3 (human) = MYLK3 (human) (UniProt Q32MK0)
DYRK1A (human) = DYRK1A (human) (UniProt Q13627)
PRKACA (human) = PRKACA (human) (UniProt P17612)
HUNK (human) = HUNK (human) (UniProt P57058)
CIT (human) = CIT (human) (UniProt O14578)
RPS6KA5 KD1 (human) = RPS6KA5 KD1 (human) (UniProt O75582)
MAPKAPK2 (human) = MAPKAPK2 (human) (UniProt P49137)
ACVR1B (human) = ACVR1B (human) (UniProt P36896)
ACVR1B (human), sequence (P36896 whole entry, looked up): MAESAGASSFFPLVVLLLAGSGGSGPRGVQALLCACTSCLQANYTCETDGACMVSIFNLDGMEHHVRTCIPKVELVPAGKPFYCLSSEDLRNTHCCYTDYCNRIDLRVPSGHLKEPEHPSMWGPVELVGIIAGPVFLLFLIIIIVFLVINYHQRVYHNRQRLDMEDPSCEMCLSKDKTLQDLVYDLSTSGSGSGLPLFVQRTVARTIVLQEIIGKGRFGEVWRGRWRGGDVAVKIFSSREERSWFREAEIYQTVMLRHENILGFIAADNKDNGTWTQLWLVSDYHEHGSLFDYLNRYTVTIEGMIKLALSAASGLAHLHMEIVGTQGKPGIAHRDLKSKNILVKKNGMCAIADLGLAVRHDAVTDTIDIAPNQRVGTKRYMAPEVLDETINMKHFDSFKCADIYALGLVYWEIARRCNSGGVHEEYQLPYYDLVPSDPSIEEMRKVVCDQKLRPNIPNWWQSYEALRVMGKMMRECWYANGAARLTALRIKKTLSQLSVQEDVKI

MAP4K1 (human) = MAP4K1 (human) (UniProt Q92918)
[2] = test system: LRRK2 (human), Q5S007 [G2019S]
FYN (human) = FYN (human) (UniProt P06241)
FYN (human), sequence (P06241 whole entry, looked up): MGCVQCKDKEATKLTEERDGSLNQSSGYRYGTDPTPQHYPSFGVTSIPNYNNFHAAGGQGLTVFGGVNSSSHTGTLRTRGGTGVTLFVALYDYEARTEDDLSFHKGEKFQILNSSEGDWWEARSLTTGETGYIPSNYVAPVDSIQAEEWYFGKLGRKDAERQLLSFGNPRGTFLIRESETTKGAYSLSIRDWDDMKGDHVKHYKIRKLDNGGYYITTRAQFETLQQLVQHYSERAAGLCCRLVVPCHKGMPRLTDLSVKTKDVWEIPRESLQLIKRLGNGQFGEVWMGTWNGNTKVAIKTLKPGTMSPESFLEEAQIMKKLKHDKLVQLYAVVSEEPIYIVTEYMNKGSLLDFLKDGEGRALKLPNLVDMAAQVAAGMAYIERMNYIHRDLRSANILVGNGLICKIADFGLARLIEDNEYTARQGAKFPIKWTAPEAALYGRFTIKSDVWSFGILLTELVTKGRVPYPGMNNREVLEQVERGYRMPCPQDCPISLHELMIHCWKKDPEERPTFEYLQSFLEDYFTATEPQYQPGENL

IKBKE (human) = IKBKE (human) (UniProt Q14164)
IKBKE (human), sequence (Q14164 whole entry, looked up): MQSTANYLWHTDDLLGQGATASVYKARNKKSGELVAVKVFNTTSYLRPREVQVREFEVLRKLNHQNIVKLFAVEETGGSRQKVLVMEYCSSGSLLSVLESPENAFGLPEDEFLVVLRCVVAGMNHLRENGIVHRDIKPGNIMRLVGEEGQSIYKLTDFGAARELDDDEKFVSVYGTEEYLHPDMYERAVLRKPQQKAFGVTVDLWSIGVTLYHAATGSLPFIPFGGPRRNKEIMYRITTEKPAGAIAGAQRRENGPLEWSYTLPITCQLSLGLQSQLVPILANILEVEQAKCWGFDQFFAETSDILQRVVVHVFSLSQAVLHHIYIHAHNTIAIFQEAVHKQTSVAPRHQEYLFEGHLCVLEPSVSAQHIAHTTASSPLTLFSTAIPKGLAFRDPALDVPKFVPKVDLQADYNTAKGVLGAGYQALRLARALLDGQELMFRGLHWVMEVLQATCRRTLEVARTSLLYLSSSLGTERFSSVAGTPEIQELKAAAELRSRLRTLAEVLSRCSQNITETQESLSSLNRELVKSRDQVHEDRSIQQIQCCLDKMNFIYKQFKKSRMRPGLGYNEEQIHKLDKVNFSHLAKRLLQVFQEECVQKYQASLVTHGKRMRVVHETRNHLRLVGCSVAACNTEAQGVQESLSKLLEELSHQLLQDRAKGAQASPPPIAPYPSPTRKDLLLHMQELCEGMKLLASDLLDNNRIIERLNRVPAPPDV

FGR (human) = FGR (human) (UniProt P09769)
[3] = molecular target: JAK1 JH1 catalytic (human) (UniProt P23458)
SRPK1 (human) = SRPK1 (human) (UniProt Q96SB4)
SRPK1 (human), sequence (Q96SB4 whole entry, looked up): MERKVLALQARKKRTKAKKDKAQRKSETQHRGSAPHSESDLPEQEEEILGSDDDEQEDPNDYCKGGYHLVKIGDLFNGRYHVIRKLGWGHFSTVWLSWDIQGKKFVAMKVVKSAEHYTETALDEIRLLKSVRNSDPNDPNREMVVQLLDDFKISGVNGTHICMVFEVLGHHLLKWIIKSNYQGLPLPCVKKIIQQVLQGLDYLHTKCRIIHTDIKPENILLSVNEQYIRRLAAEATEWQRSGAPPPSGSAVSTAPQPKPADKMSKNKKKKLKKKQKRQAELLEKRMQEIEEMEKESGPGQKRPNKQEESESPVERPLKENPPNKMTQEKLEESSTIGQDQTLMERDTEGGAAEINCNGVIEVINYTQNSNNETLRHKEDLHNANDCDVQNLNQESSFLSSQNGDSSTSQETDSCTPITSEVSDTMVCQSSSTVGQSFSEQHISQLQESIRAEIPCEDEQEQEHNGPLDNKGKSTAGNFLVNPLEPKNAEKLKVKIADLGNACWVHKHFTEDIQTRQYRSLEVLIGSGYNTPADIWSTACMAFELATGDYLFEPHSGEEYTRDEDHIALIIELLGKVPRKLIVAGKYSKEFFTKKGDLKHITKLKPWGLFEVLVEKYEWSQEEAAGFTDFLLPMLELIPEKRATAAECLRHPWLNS

CASK (human) = CASK (human) (UniProt O14936)
PHKG1 (human) = PHKG1 (human) (UniProt Q16816)
PHKG1 (human), sequence (Q16816 whole entry, looked up): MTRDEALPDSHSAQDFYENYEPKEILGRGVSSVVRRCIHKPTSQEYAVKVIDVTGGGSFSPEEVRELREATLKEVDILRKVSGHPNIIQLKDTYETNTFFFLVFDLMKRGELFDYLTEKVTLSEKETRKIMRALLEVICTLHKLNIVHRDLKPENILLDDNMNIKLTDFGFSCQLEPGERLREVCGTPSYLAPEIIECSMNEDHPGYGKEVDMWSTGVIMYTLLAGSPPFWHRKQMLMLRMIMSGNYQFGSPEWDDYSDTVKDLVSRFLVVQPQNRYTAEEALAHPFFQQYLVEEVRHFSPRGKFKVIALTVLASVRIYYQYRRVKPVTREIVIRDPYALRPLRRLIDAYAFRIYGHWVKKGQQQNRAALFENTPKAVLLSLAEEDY

TYRO3 (human) = TYRO3 (human) (UniProt Q06418)
PRKCQ (human) = PRKCQ (human) (UniProt Q04759)
PRKAA2 (human) = PRKAA2 (human) (UniProt P54646)
TXK (human) = TXK (human) (UniProt P42681)

DMPK (human), sequence (Q09013 whole entry, looked up): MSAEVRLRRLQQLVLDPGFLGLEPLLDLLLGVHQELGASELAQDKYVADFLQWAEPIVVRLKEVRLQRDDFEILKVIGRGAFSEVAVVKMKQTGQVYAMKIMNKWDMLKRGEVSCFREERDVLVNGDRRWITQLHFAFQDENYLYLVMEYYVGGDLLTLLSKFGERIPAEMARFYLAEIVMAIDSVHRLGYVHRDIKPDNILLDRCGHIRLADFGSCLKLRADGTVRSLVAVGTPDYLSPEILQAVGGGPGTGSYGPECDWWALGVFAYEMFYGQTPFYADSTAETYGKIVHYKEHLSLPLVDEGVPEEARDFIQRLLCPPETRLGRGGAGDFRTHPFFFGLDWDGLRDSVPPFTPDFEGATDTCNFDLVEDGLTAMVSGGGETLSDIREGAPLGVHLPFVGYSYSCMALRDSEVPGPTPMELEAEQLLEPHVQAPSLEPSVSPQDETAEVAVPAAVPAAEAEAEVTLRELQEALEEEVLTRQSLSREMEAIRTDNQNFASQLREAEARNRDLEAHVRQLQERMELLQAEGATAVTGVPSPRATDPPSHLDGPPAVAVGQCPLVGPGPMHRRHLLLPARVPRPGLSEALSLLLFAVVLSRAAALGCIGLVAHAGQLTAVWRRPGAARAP

SMILES	kinase still bound, per cent of control (CDK7 (human)) [%]	kinase still bound, per cent of control (DMPK (human)) [%]	kinase still bound, per cent of control (ACVR1 (human)) [%]	kinase still bound, per cent of control (AKT2 (human)) [%]	kinase still bound, per cent of control (FGFR1 (human)) [%]	kinase still bound, per cent of control (PRKD1 (human)) [%]	kinase still bound, per cent of control (EPHA4 (human)) [%]	kinase still bound, per cent of control (GRK1 (human)) [%]	kinase still bound, per cent of control (PAK4 (human)) [%]	kinase still bound, per cent of control (NEK4 (human)) [%]	kinase still bound, per cent of control [1] [%]	kinase still bound, per cent of control (MAP3K13 (human)) [%]	kinase still bound, per cent of control (BMPR2 (human)) [%]	kinase still bound, per cent of control (PRKX (human)) [%]	kinase still bound, per cent of control (AXL (human)) [%]	kinase still bound, per cent of control (ACVR2A (human)) [%]	kinase still bound, per cent of control (PIP4K2B (human)) [%]	kinase still bound, per cent of control (RPS6KA1 KD1 (human)) [%]	kinase still bound, per cent of control (SRMS (human)) [%]	kinase still bound, per cent of control (MYLK3 (human)) [%]	other results
C=CC(=O)Nc1ccc(C(=O)c2sc(Nc3ccc(N4CCN(C)CC4)cc3OC)nc2N)cc1	5.8	12	100	100	38	39	96	100	95	97	39	100	100	99	100	100	32	24	66	100	kinase still bound, per cent of control (DYRK1A (human)): 0.15%; kinase still bound, per cent of control (PRKACA (human)): 100%; kinase still bound, per cent of control (HUNK (human)): 33%; kinase still bound, per cent of control (CIT (human)): 13%; kinase still bound, per cent of control (RPS6KA5 KD1 (human)): 100%; kinase still bound, per cent of control (MAPKAPK2 (human)): 99%; kinase still bound, per cent of control (ACVR1B (human)): 100%; kinase still bound, per cent of control (MAP4K1 (human)): 84%; kinase still bound, per cent of control [2]: 1.5%; kinase still bound, per cent of control (FYN (human)): 83%; kinase still bound, per cent of control (IKBKE (human)): 84%; kinase still bound, per cent of control (FGR (human)): 91%; kinase still bound, per cent of control [3]: 100%; kinase still bound, per cent of control (SRPK1 (human)): 71%; kinase still bound, per cent of control (CASK (human)): 100%; kinase still bound, per cent of control (PHKG1 (human)): 7.4%; kinase still bound, per cent of control (TYRO3 (human)): 100%; kinase still bound, per cent of control (PRKCQ (human)): 93%; kinase still bound, per cent of control (PRKAA2 (human)): 100%; kinase still bound, per cent of control (TXK (human)): 100%
N#Cc1cc(-c2ccnc(Nc3ccc(-n4cnc(-c5cccnc5)n4)cc3)n2)cc(N2CCOCC2)c1	1.2	85	23	100	93	66	79	100	31	100	54	100	72	55	28	16	6.9	31	62	100	kinase still bound, per cent of control (DYRK1A (human)): 3.1%; kinase still bound, per cent of control (PRKACA (human)): 89%; kinase still bound, per cent of control (HUNK (human)): 42%; kinase still bound, per cent of control (CIT (human)): 0.9%; kinase still bound, per cent of control (RPS6KA5 KD1 (human)): 100%; kinase still bound, per cent of control (MAPKAPK2 (human)): 100%; kinase still bound, per cent of control (ACVR1B (human)): 76%; kinase still bound, per cent of control (MAP4K1 (human)): 26%; kinase still bound, per cent of control [2]: 53%; kinase still bound, per cent of control (FYN (human)): 83%; kinase still bound, per cent of control (IKBKE (human)): 37%; kinase still bound, per cent of control (FGR (human)): 54%; kinase still bound, per cent of control [3]: 59%; kinase still bound, per cent of control (SRPK1 (human)): 30%; kinase still bound, per cent of control (CASK (human)): 78%; kinase still bound, per cent of control (PHKG1 (human)): 65%; kinase still bound, per cent of control (TYRO3 (human)): 87%; kinase still bound, per cent of control (PRKCQ (human)): 100%; kinase still bound, per cent of control (PRKAA2 (human)): 94%; kinase still bound, per cent of control (TXK (human)): 60%
